From US20260165968A1, “SUSTAINED-RELEASE PLGA MICROSPHERE CONTAINING GS-441524, AND METHOD FOR PRODUCING SAME” (THE INDUSTRY & ACADEMIC COOPERATION IN CHUNGNAM NATIONAL …, priority 2022, published 2026)
Read-outs that look alike come from different tables or passages of the source.

Assays:
[1] = Pharmacokinetic evaluation after subcutaneous injection into rats; assay type: in vivo
Experimental: The pharmacokinetic evaluation of the GS-441524-containing PLGA microspheres of Example F3 according to the disclosure was carried out. Rats as test animals were randomly divided into test and control groups, with 5 animals in each group, and raised under the same conditions while predetermined amounts of solid food and water were supplied for 7 days. The rats were fasted for 12 hours before testing, and then used for testing.
The test group was subcutaneously administered GS-441524 at a dose corresponding to 28 mg/kg by using the PLGA microspheres of Example F3 of the disclosure, and the control group was subcutaneously administered 28 mg/kg GS-441524 alone. Approximately 300 μL of blood was collected by retro-orbital bleeding 1, 2, 4, 8, 12, 24, 48, 72, 96, 120, and 144 hours after the subcutaneous injection to the rats. Each of the obtained samples was centrifuged at 15,000 rpm for 5 minutes to separate the plasma, and then stored at −70° C. before analysis.
Plasma sample pre-treatment was performed using a deproteination method. After 100 μL of a plasma sample was taken, 200 μL of methanol (the internal standard substance 10 ng/MI verapamil) was added thereto, followed by mixing for 10 minutes and then extraction. The extract was centrifuged at 17,000 rpm for 10 minutes, and then the supernatant was collected and analyzed using LC-MS/MS to quantify GS-441524 in the blood.

[2] = in humans; cited from earlier work
[3] = rat, plasma, sc, 28 mg/kg GS-441524

Question: With `N#C[C@@]1(c2ccc3c(N)ncnn23)O[C@H](CO)[C@@H](O)[C@H]1O` [GS-441524, (2R,3R,4S,5R)-2-(4-aminopyrrolo[2,1-f][1,2,4]triazin-7-yl)-3,4-dihydroxy-5-(hydroxymethyl) oxolane-2-carbonitrile] as the compound, how does the Cl ([1]; 28 mg/kg GS-441524) read?
Answer: 17.32 ± 9.32 mL/min/kg

Question: What about the Vz ([1]; 28 mg/kg GS-441524) of the same compound?
Answer: 81.261 ± 84.077 L/kg

Question: And the Cmax [1, 3]?
Answer: 8170 ± 4080 ng/mL

Question: What about the half-life [1, 3] of the same compound?
Answer: 61.5 ± 66.2 h

Question: What about the AUC(0-t) ([1]; rat, plasma, sc, 28 mg/kg GS-441524, read-out: AUC0→144) of the same compound?
Answer: 31600 ± 14300 ng·h/mL

Question: And the half-life [2]?
Answer: about 24 hours
